# Laboratory results: patent publication US20150212068A1, “Cholyl-L-Lysyl-Fluorescein Assay” (Novassay SA, priority 2012, published 2015)
# Entries after “also recorded” stand apart in the source; their conditions may differ.
# Tested on: serum/plasma proteins
# Assay: Effect of ANS on CLF recovery in the labelled-antibody format
# Type: in vitro ADME
# Details: human serum/plasma spiked with CLF, competitive immunoassay
# Description: This was successful in shifting the mean recovery to ˜100%. However, an unacceptably wide sample-to-sample variation was still observed (˜70-180%), therefore it was concluded that a blocker approach would be required, in which a chemical agent is used to displace the analyte from the binding proteins, so that it can be recovered effectively in the assay. […] ANS was therefore evaluated in more detail in this format.
# The following study was executed to assess the recovery of CLF following spiking into human serum in assays, in the presence and absence of ANS.
# 25 μl of standard (in buffer) was added to streptavidin coated wells, followed by 100 ul of 20 ng/ml biotin-fluorescein (one formulation containing 0.2% ANS, the other without) and 100 μl of anti-fluorescein HRP (100 ng/ml). After 30 minutes incubation (RT/static) the wells were washed and 100 μl of SureBlue Reserve TMB substrate added. After a further 10 minutes incubation, 100 μl of 1M HCl was added and the colour intensity measured at 450 nm.
# 3 plasma samples (Lithium heparin) were spiked with CLF at […]; these concentrations (the expected values) are noted in the relevant sample IDs.
smiles,measurement,value
"O=S(=O)(O)c1cccc2cccc(Nc3ccccc3)c12 [ANS, 8-anilino-1-naphthalene sulfonic acid]",displacement of CLF from serum/plasma proteins by blocker,effective in displacing CLF bound to serum/plasma proteins; also recorded: able to displace CLF from serum proteins
